# Assays:
# S. aureus (ATCC 29213) = test: MIC80 on S. aureus; assay type: cell-based, Staphylococcus aureus; conditions: Staphylococcus aureus, ATCC 29213 / MSSA, read-out: MIC80 S. aureus, S. aureus ATCC 29213 (MSSA); ≥80% growth inhibition
# [1] = tested on: Staphylococcus saprophyticus (ATCC BAA-750); test: MIC80 on S. saprophyticus; assay type: cell-based; conditions: Staphylococcus saprophyticus, ATCCBAA750; S. saprophyticus ATCC BAA-750; read-out: MIC80 S. sapro
# Experimental: (§1) To further characterize the compounds, the minimal inhibitory concentration (MIC80) were determined for selected compounds. MIC80 is defined as the compound concentration at which ≥80% bacterial growth is inhibited compare to untreated controls. Meanwhile, for the selected compounds, cytotoxicity assays (CC50) were performed on a HepG2-derived hepatoblastoma cell line (HEPDES19). […] For CC50 evaluation, soluble tetrazolium dye (MTS) was used to measure mitochondrial toxicity in a human hepatoblastoma cell line (18). The bacteria (E. coli, S. saprophyticus and A. baumannii) used in MIC80 measurements were the same as that in the primary screening, but for Staphylococcus, S. aureus is used primarily because it is a common pathogen in Staphylococcaeae family, while S. saprophyticus is part of the normal human flora.
# [2] = tested on: Acinetobacter baumannii (Abl, from a patient); test: microbe, parasite or virus in culture; assay type: cell-based; conditions: Acinetobacter baumannii, read-out: MIC80 A. baumannii, A. baumannii Ab1, MDR patient isolate
# E. coli (ATCC 35218) = test: microbe, parasite or virus in culture; assay type: cell-based; conditions: for MIC80: Escherichia coli, ATCC35218, read-out: MIC80 E. coli, E. coli ATCC 35218
# [3] = Cytotoxicity assay (CC50), MTS; assay type: cell-based, human; conditions: human, HepG2-derived hepatoblastoma cell line (HEPDES19), HEPDES19 cells
# Experimental: as §1
# [4] = tested on: HepG2-derived hepatoblastoma cell line (HEPDES19); test: Cytotoxicity assay (CC50), MTS; assay type: cell-based, human; conditions: HEPDES19 cells
# Experimental: as §1
# [5] = tested on: S. aureus and/or S. saprophyticus; test: MIC80 on S. aureus and/or S. saprophyticus; assay type: cell-based; conditions: read-out: MIC80 against S. aureus and/or S. saprophyticus
# Experimental: as §1, with “(HEPDES19). […] For the MIC80 measurements, a 1.5 fold dilution series of the compounds was prepared in Mueller-Hinton II broth.” for “(HEPDES19).”, “flora. S. aureus (ATCC 29213) is methicillin-sensitive Staphylococcus aureus (MSSA) strain and it was used as a model strain to measure the MIC80.” for “flora.”
# [6] = tested on: S. aureus ATCC strains and methicillin-resistant Staphylococcus aureus (MRSA); test: MIC80 on S. aureus ATCC strains and MRSA; assay type: cell-based
# Experimental: as §1
# [7] = tested on: Staphylococcus epidermidis; test: MIC80 on S. epidermidis; assay type: cell-based
# Experimental: as §1, with “(HEPDES19). […] For the MIC80 measurements, a 1.5 fold dilution series of the compounds was prepared in Mueller-Hinton II broth.” for “(HEPDES19).”, “flora. S. aureus (ATCC 29213) is methicillin-sensitive Staphylococcus aureus (MSSA) strain and it was used as a model strain to measure the MIC80.” for “flora.”
# (§2) It was also tested whether compounds #63 and #285 can inhibit other coagulase-negative Staphylococcus (CNS) including S. epidermidis, S. hominis, etc. […] .
# Staphylococcus hominis = test: MIC80 on S. hominis; assay type: cell-based
# Experimental: as §1, with “(HEPDES19). […] For the MIC80 measurements, a 1.5 fold dilution series of the compounds was prepared in Mueller-Hinton II broth.” for “(HEPDES19).”, “flora. S. aureus (ATCC 29213) is methicillin-sensitive Staphylococcus aureus (MSSA) strain and it was used as a model strain to measure the MIC80.” for “flora.”
# as §2
# [8] = tested on: Coagulase negative Staphylococcus; test: MIC80 on coagulase negative Staphylococcus; assay type: cell-based
# Experimental: as §1, with “(HEPDES19). […] For the MIC80 measurements, a 1.5 fold dilution series of the compounds was prepared in Mueller-Hinton II broth.” for “(HEPDES19).”, “flora. S. aureus (ATCC 29213) is methicillin-sensitive Staphylococcus aureus (MSSA) strain and it was used as a model strain to measure the MIC80.” for “flora.”
# as §2
# Citrobacter koseri = test: microbe, parasite or virus in culture; assay type: cell-based; conditions: Citrobacter koseri
# Experimental: as §1
# (§3) All these MDR-bacteria are at least resistant to two classes of the antibiotics among five groups and/or specific antibiotics including quinolones/fluorquinolones, carbapenems, cephalosporins, aminoglycosides and piperacillin-tazobactam.
# [9] = tested on: Enterobacter cloacae complex; test: microbe, parasite or virus in culture; assay type: cell-based; conditions: Enterobacter cloacae
# Experimental: as §1, §3
# Klebsiella pneumoniae = test: microbe, parasite or virus in culture; assay type: cell-based; conditions: Klebsiella pneumoniae
# Experimental: as §1, §3
# MDR E. coli = test: microbe, parasite or virus in culture; assay type: cell-based; conditions: Escherichia coli
# Experimental: as §1, §3
# MDR Enterobacteriaceae = test: microbe, parasite or virus in culture; assay type: cell-based; conditions: Escherichia coli, read-out: MIC80 on MDR Enterobacteriaceae
# Experimental: as §1, §3
# Morganella morganii = test: microbe, parasite or virus in culture; assay type: cell-based; conditions: Morganella morganii
# Experimental: as §1, §3
smiles,measurement,setting,value
O=C(Oc1cccccc1=O)c1ccc(Cl)cc1 [Compound 63],MIC80,S. aureus (ATCC 29213),16.5 µM
same,MIC80,[1],9.2 µM
same,MIC80,[2],83.4 µM
same,MIC80,E. coli (ATCC 35218),111 µM
same,CC50,[3],> 50 µM
same,CC50,[4],≥ 100 µM
same,MIC80,[5],< 20 µM
same,MIC80,"[6]; ATCC 25923 / MRSA, S. aureus ATCC 25923",8.8 µM
same,MIC80,"[6]; ATCC 29213 / MRSA, S. aureus ATCC 29213 (Table 3)",8.8 µM
same,MIC80,"[6]; BAA-976 / MRSA, S. aureus ATCC BAA 976",13.2 µM
same,MIC80,"[6]; BAA-977 / MRSA, S. aureus ATCC BAA 977",8.8 µM
same,MIC80,"[6]; MRSA, Sa1 (MRSA)",8.8 µM
same,MIC80,"[6]; MRSA, Sa2 (MRSA)",8.8 µM
same,MIC80,"[6]; MRSA, Sa3 (MRSA)",8.8 µM
same,MIC80,"[6]; MRSA, Sa5 (MRSA)",8.8 µM
same,MIC80,"[6]; MRSA, Sa6 (MRSA)",8.8 µM
same,MIC80,"[6]; MRSA, Sa7 (MRSA)",8.8 µM
same,MIC80,"[6]; MRSA, Sa8 (MRSA)",8.8 µM
same,MIC80,"[6]; MRSA, Sa9 (MRSA)",8.8 µM
same,MIC80,"[6]; MRSA, Sa10 (MRSA)",8.8 µM
same,MIC80,"[6]; MRSA, Sa11 (MRSA)",8.8 µM
same,MIC80,"[6]; MRSA, Sa12 (MRSA)",8.8 µM
same,MIC80,"[6]; MRSA, Sa14 (MRSA)",8.8 µM
same,MIC80,"[6]; MRSA, Sa15 (MRSA)",8.8 µM
same,MIC80,"[6]; MRSA, Sa16 (MRSA)",8.8 µM
same,MIC80,"[6]; MRSA, Sa17 (MRSA)",8.8 µM
same,MIC80,"[6]; MRSA, Sa18 (MRSA)",8.8 µM
same,MIC80,"[6]; MRSA, Sa19 (MRSA)",8.8 µM
same,MIC80,"[6]; MRSA, Sa20 (MRSA)",8.8 µM
same,MIC80,"[6]; MRSA, Sa21 (MRSA)",8.8 µM
same,MIC80,"[6]; MRSA, Sa22 (MRSA)",8.8 µM
same,MIC80,"[6]; MRSA, Sa23 (MRSA)",8.8 µM
same,MIC80,[7]; Se1 (Staphylococcus epidermidis),8.8 µM
same,MIC80,[7]; Se2 (Staphylococcus epidermidis),8.8 µM
same,MIC80,[7]; Se3 (Staphylococcus epidermidis),8.8 µM
same,MIC80,[7]; Se4 (Staphylococcus epidermidis),8.8 µM
same,MIC80,[7]; Se5 (Staphylococcus epidermidis),8.8 µM
same,MIC80,Staphylococcus hominis; Sh1 (Staphylococcus hominis),8.8 µM
same,MIC80,Staphylococcus hominis; Sh2 (Staphylococcus hominis),13.2 µM
same,MIC80,Staphylococcus hominis; Sh3 (Staphylococcus hominis),8.8 µM
same,MIC80,[8]; CNS1 (Coagulase negative Staphylococcus),13.2 µM
same,MIC80,[8]; CNS2 (Coagulase negative Staphylococcus),5.9 µM
Cc1ccc(C(=O)Sc2cccccc2=O)cc1 [Compound 284],MIC80,S. aureus (ATCC 29213),15 µM
same,MIC80,[1],44.4 µM
same,MIC80,[2],55.6 µM
same,MIC80 E. coli,E. coli (ATCC 35218); E. coli ATCC 35218,24.1 µM
same,MIC80,E. coli (ATCC 35218),< 30 µM
same,CC50,[3],> 50 µM
same,MIC80,[5],< 20 µM
same,MIC80,Citrobacter koseri,8.8 µM
same,MIC80,[9],8.8 µM
same,MIC80,Klebsiella pneumoniae; Kp1 (Klebsiella pneumonia),5.9 µM
same,MIC80,Klebsiella pneumoniae; Kp6 (Klebsiella pneumonia),29.6 µM
same,MIC80,MDR E. coli; Ec1 (MDR E. coli),5.9 µM
same,MIC80,MDR E. coli; Ec2 (MDR E. coli),3.9 µM
same,MIC80,MDR E. coli; Ec3 (MDR E. coli),5.9 µM
same,MIC80,MDR E. coli; Ec4 (MDR E. coli),8.8 µM
same,MIC80,MDR E. coli; Ec5 (MDR E. coli),29.6 µM
same,MIC80,MDR Enterobacteriaceae,≤ 20 µM
same,MIC80,Morganella morganii,19.8 µM
